From paper PMC7062746, “X-ray Crystallography and Electron Paramagnetic Resonance Spectroscopy Reveal Active Site Rearrangement of Cold-Adapted Inorganic Pyrophosphatase” (Scientific Reports, 2020)

Molecular target: T1, Sh-PPase (Mn-Sh-PPase; Mg-Sh-PPase) (Shewanella sp. AS-11, UniProt L8AXY8)
T1 construct: gene ppia; recombinant full-length (no tag stated), expressed in E. coli BL21 (DE3); ammonium sulphate fractionation, anion exchange, gel filtration; family II PPases are homodimers
T1 sequence (L8AXY8 2-308): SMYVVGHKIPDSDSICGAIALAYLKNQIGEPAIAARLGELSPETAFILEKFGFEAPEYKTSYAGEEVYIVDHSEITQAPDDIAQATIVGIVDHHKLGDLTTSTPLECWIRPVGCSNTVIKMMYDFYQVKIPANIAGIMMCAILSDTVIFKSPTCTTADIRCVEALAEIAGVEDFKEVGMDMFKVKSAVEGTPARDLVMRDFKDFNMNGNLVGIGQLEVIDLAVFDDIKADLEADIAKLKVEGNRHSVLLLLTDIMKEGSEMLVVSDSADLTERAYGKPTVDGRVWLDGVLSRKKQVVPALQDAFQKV
Assay: CW X-band EPR of the di-Mn centre
Format: binding
Details: Mn-activated enzyme, pH 7.5, frozen solution

Structure (SMILES)	CW X-band EPR of the di-Mn centre (substrate analogue, di-Mn centre signal lost on binding (inferred binding))	CW X-band EPR of the di-Mn centre (added as ammonium sulphate, substrate binding site)
O=P(O)(O)CP(=O)(O)O [PCP, methylendiphosphonic acid]	binding of PCP induced the decomposition of the di-Mn centre	–
O=S(=O)(O)O [sulphate]	–	sulphate ion bound correctly to the substrate binding site
